Like-named read-outs stand apart in the source and are kept apart here.
Experiments:
[1] = target: T1, recombinant HIV reverse transcriptase (HIV RTR) (Human immunodeficiency virus type 1 group M subtype B, UniProt P04585); test: Reverse transcriptase assay (incorporation of tritiated dGMP into acid-precipitable cDNA); format: biochemical
T1 construct: recombinant HIV reverse transcriptase (HIV RTR); made in house; host or cells: bacteria (E. coli is named only for the purified heterodimer control)
Experimental: (§1) The assay measures the incorporation of tritiated deoxyguanosine monophosphate by recombinant HIV reverse transcriptase (HIV RTR) (or other RT) into acid-precipitable cDNA at the Km values of dGTP and poly r(C)·oligo d(G)₁₂₋₁₈.
(§2) The assays were carried out in 55 mM Tris (pH 8.2)-30 mM KCl-30 mM MgCl₂-1 mM dithiothreitol-20 µg of rC:dG₁₂₋₁₈ (Pharmacia) per ml-8 µM [³H]dGTP (New England Nuclear)-0.01% Triton X-100-50 µM ethylene glycol-bis(β-amino-ethyl ether)-N,N,N',N'-tetraacetic acid (EGTA)-1 mg of bovine serum albumin per ml. After 60 min of incubation at 37°C, acid-precipitable material was collected onto glass fiber filters by using a semiautomatic cell harvester. Bacterial cell extracts containing RT were diluted to within the linear range of the assay, and activity was determined in the presence and absence of inhibitor. Purified HIV-1 RT heterodimer produced in E. coli also served as a control.

A17 RT = target: T2, A17 RT (Human immunodeficiency virus type 1 group M subtype B, UniProt P04585, K690N/Y768C); test: Reverse transcriptase assay, double (DBL) mutant; format: biochemical, HIV
T2 construct: A17 RT was employed in the assay; made in house; host or cells: bacteria
Experimental: as §1, §2
For the double (DBL) mutant assay, A17 RT was employed in the assay. A17 RT is resistant to various aminopyridones, as described in Nunberg, J.H. et al., J. Virol. 65, 4887 (1991).

[2] = recombinant HIV RT, 60 min at 37°C, read-out: IC50

| SMILES | IC50 [1] | IC50 (A17 RT) | IC50 [1, 2] | IC50 (A17 RT; A17 RT (double mutant, resistant to aminopyridones), read-out: IC50DBL Mutant) |
| --- | --- | --- | --- | --- |
| O=C1Nc2ccc(Cl)cc2C(C#Cc2ccccn2)(C2CC2)N1 (racemic) [Compound 11, 6-chloro-4-cyclopropyl-3,4-dihydro-4-((2-pyridyl)ethynyl)quinazolin-2(1H)-one] | 19 nM | 635 nM |  |  |
| COCC#CC1(C2CC2)NC(=O)Nc2ccc(Cl)cc21 (stereo not drawn) [Compound 1, 6-chloro-4-cyclopropyl-3,4-dihydro-4-(3-methoxy-1-propynyl)quinazolin-2(1H)-one] | 49 nM | 7300 nM |  |  |
| COCC#CC1(C2CC2)c2cc(Cl)ccc2NC(=O)N1C (stereo not drawn) [Compound 2, 6-chloro-4-cyclopropyl-3,4-dihydro-3-methyl-4-(3-methoxy-1-propynyl)quinazolin-2(1H)-one] | 13 nM | 700 nM |  |  |
| CN1C(=O)Nc2ccc(Cl)cc2C1(C#CCOCC(F)(F)F)C1CC1 (stereo not drawn) [Compound 3, 6-chloro-4-cyclopropyl-3,4-dihydro-3-methyl-4-(3-(2,2,2-trifluoroethoxy)-1-propynyl)quinazolin-2(1H)-one] | 19 nM | 2600 nM |  |  |
| CN1C(=O)Nc2ccc(Cl)cc2C1(C#CCCF)C1CC1 (stereo not drawn) [Compound 4, 6-chloro-4-cyclopropyl-4-(4-fluoro-1-butynyl)-3,4-dihydro-3-methylquinazolin-2(1H)-one] | 7 nM | 230 nM |  |  |
| O=C1Nc2ccc(Cl)cc2C(C#CCCF)(C2CC2)N1 (stereo not drawn) [Compound 5, 6-chloro-4-cyclopropyl-4-(4-fluoro-1-butynyl)-3,4-dihydroquinazolin-2(1H)-one] | 31 nM | 3500 nM |  |  |
| CN1C(=O)Nc2ccc(Cl)cc2C1(C#CCCCl)C1CC1 (stereo not drawn) [Compound 6, 6-chloro-4-(4-chloro-1-butynyl)-4-cyclopropyl-3,4-dihydro-3-methylquinazolin-2(1H)-one] | 7 nM | 250 nM |  |  |
| CN1C(=O)Nc2ccc(Cl)cc2C1(C#CCN=[N+]=[N-])C1CC1 (stereo not drawn) [Compound 7, 4-(3-azido-1-propynyl)-6-chloro-4-cyclopropyl-3,4-dihydro-3-methylquinazolin-2(1H)-one] | 20 nM | 1750 nM |  |  |
| CN1C(=O)Nc2ccc(Cl)cc2C1(C#CCF)C1CC1 (stereo not drawn) [Compound 8, 6-chloro-4-cyclopropyl-4-(3-fluoro-1-propynyl)-3,4-dihydro-3-methylquinazolin-2(1H)-one] | 24 nM | 2900 nM |  |  |
| CN(C)CC#CC1(C2CC2)c2cc(Cl)ccc2NC(=O)N1C (stereo not drawn) [Compound 9, 6-chloro-4-cyclopropyl-3,4-dihydro-3-methyl-4-(3-(N,N-dimethylamino)-1-propynyl)quinazolin-2(1H)-one] | 54 nM | 273 nM |  |  |
| CN1C(=O)Nc2ccc(Cl)cc2C1(C#Cc1ccccn1)C1CC1 (stereo not drawn) [Compound 10, 6-chloro-4-cyclopropyl-3,4-dihydro-3-methyl-4-((2-pyridyl)ethynyl)quinazolin-2(1H)-one] | 21 nM | 87 nM |  |  |
| O=C1Nc2ccc(Cl)cc2C(C#Cc2cccnc2)(C2CC2)N1 (stereo not drawn) [Compound 12, 6-chloro-4-cyclopropyl-3,4-dihydro-4-((3-pyridyl)ethynyl)quinazolin-2(1H)-one] | 84 nM | 310 nM |  |  |
| O=C1Nc2ccc(Cl)cc2C(C#Cc2ccncc2)(C2CC2)N1 (stereo not drawn) [Compound 13, 6-chloro-4-cyclopropyl-3,4-dihydro-4-((4-pyridyl)ethynyl)quinazolin-2(1H)-one] | 470 nM | 3000 nM |  |  |
| O=C1Nc2ccc(Cl)cc2C(C#Cc2cncnc2)(C2CC2)N1 (stereo not drawn) [Compound 14, 6-chloro-4-cyclopropyl-3,4-dihydro-4-((5-pyrimidinyl)ethynyl)quinazolin-2(1H)-one] | 1750 nM | 3000 nM |  |  |
| O=C1Nc2ccc(Cl)cc2C(C#Cc2ncccn2)(C2CC2)N1 (stereo not drawn) [Compound 15, 6-chloro-4-cyclopropyl-3,4-dihydro-4-((2-pyrimidinyl)ethynyl)quinazolin-2(1H)-one] |  | 8800 nM | 130 nM |  |
| O=C1Nc2ccc(Cl)cc2C(C#Cc2cnccn2)(C2CC2)N1 (stereo not drawn) [Compound 16, 6-chloro-4-cyclopropyl-3,4-dihydro-4-((2-pyrazinyl)ethynyl)quinazolin-2(1H)-one] |  | 9000 nM | 270 nM |  |
| CN1C(=O)Nc2ccc(Cl)cc2C1(C#CCOc1ccncc1)C1CC1 (stereo not drawn) [Compound 17, 6-chloro-4-cyclopropyl-3,4-dihydro-3-methyl-4-(3-(4-pyridyloxy)-1-propynyl)quinazolin-2(1H)-one] | 165 nM | 3900 nM |  |  |
| CN1C(=O)Nc2ccc(Cl)cc2C1(C#CCOc1cc[n+]([O-])cc1)C1CC1 (stereo not drawn) [Compound 18, 6-chloro-4-cyclopropyl-3,4-dihydro-3-methyl-4-(3-(4-(N-oxopyridyl)oxy)-1-propynyl)quinazolin-2(1H)-one] |  |  | 9400 nM | 65000 nM |
| CN1C(=O)Nc2ccc(Cl)cc2C1(C#CCN1CCOCC1)C1CC1 (stereo not drawn) [Compound 19, 6-chloro-4-cyclopropyl-3,4-dihydro-3-methyl-4-(3-(4-morpholinyl)-1-propynyl)quinazolin-2(1H)-one] | 1000 nM | 22000 nM |  |  |
| CN1C(=O)Nc2ccc(Cl)cc2C1(C#CCn1ccnc1)C1CC1 (stereo not drawn) [Compound 20, 6-chloro-4-cyclopropyl-3,4-dihydro-4-(3-(1-imidazolyl)-1-propynyl)-3-methylquinazolin-2(1H)-one] | 620 nM | 960 nM |  |  |
| C=CC#CC1(C2CC2)c2cc(Cl)ccc2NC(=O)N1C (stereo not drawn) [Compound 21, 4-(3-buten-1-ynyl)-6-chloro-4-cyclopropyl-3,4-dihydro-3-methylquinazolin-2(1H)-one] | 4.3 nM | 248 nM |  |  |
| CN1C(=O)Nc2ccc(Cl)cc2C1(C#CCO)C1CC1 (stereo not drawn) [Compound 22, 6-Chloro-4-cyclopropyl-3,4-dihydro-4-(3-hydroxy-1-propynyl)-3-methylquinazolin-2(1H)-one] | 255 nM |  |  |  |
| O=C1Nc2ccc(Cl)cc2C(C#Cc2ccccc2)(C2CC2)N1 (stereo not drawn) [Compound 23, 6-chloro-4-cyclopropyl-3,4-dihydro-4-(phenylethynyl)quinazolin-2(1H)-one] | 6.1 nM | 135 nM |  |  |
| CN1C(=O)Nc2ccc(Cl)cc2C1(C#CCOc1ccccn1)C1CC1 (stereo not drawn) [Compound 24, 6-Chloro-4-cyclopropyl-3,4-dihydro-3-methyl-4-(3-(2-pyridyloxy)-1-propynyl)quinazolin-2(1H)-one] | 125 nM | 4900 nM |  |  |
| O=C1Nc2ccc(Cl)cc2C(C#Cc2ccccc2[N+](=O)[O-])(C2CC2)N1 (stereo not drawn) [Compound 25, 6-Chloro-4-cyclopropyl-3,4-dihydro-4-(2-nitrophenylethynyl)quinazolin-2(1H)-one] | 10.5 nM | 390 nM |  |  |
| O=C1Nc2ccc(Cl)cc2[C@@](C#Cc2ccccn2)(C2CC2)N1 [Compound 26, 6-chloro-4(S)-cyclopropyl-3,4-dihydro-4-((2-pyridyl)ethynyl)quinazolin-2(1H)-one] | 7 nM | 400 nM |  |  |

Reference: patent publication EP0569083A1, “New quinazolines as inhibitors of HIV reverse transcriptase” (priority 1992, dated 1993)
